The source of these data is US20230183248A1, “PYRROLO[1,2-D][1,2,4]TRIAZINE-2-YL-ACETAMIDES AS INHIBITORS OF THE NLRP3 INFLAMMASOME PATHWAY” (JANSSEN PHARMACEUTICA NV, priority 2020, published 2023).

The test system of assay [1] is IL-1β. The assay can be described thus: PBMC assay: LPS-stimulated IL-1β release. It is filed as cell-based. Particulars: human PBMCs, 30 min compound pre-incubation, 100 ng/ml LPS for 6 hrs, supernatant, MSD. The protocol:
(§1) Peripheral venous blood was collected from healthy individuals and human peripheral blood mononuclear cells (PBMCs) were isolated from blood by Ficoll-Histopaque (Sigma-Aldrich, A0561) density gradient centrifugation. After isolation, PBMCs were stored in liquid nitrogen for later use. Upon thawing, PBMC cell viability was determined in growth medium (RPMI media supplemented with 10% fetal bovine serum, 1% Pen-Strep and 1% L-glutamine). Compounds were spotted in a 1:3 serial dilution in DMSO and diluted to the final concentration in 30 µl medium in 96 well plates (Falcon, 353072). PBMCs were added at a density of 7.5 × 10^4 cells per well and incubated for 30 min in a 5% CO2 incubator at 37° C. LPS stimulation was performed by addition of 100 ng/ml LPS (final concentration, Invivogen, tlrl-smlps) for 6 hrs followed by collection of cellular supernatant and the analysis of IL-1β […] and TNF cytokines levels (µM) via MSD technology according to manufacturers’ guidelines (MSD, K151A0H).
(§2) The IC50 values (for IL-1β) and EC50 values (TNF) were obtained on compounds of the invention/examples, and are depicted in the following table: […]

The test system of assay [2] is TNF. In words: PBMC assay: LPS-stimulated TNF cytokine levels. The conditions noted are these: Homo sapiens, PBMC, human PBMCs, 30 min compound pre-incubation, 100 ng/ml LPS for 6 hrs, supernatant, MSD. It is filed as cell-based. The protocol: as §1, §2

The term IC50 denotes the concentration that inhibits the measured activity by half. The low end stands for higher potency, the high end for lower potency. In general, EC50 refers to the concentration at which the effect is half-maximal. Low values mean a more potent agent, high ones a less potent agent.

`CNC(=O)c1cc2c(=O)n(CC(=O)Nc3ccncn3)nc(C(C)C)n2c1` [Compound 76F, 4-isopropyl-N-methyl-1-oxo-2-(2-oxo-2-(pyrimidin-4-ylamino)ethyl)-1,2-dihydropyrrolo[1,2-d][1,2,4]triazine-7-carboxamide] showed an IC50 in assay [1] (Homo sapiens, PBMC) of more than 10 µM. Moreover, in assay [2], the EC50 is more than 10 µM.

In turn, `CC(C)c1nn(CC(=O)Nc2ccncn2)c(=O)c2cc(C(=O)N(C)C)cn12` [Compound 77F] yielded an IC50 in assay [1] (Homo sapiens, PBMC) of more than 10 µM. This compound also gave an EC50 in assay [2] of more than 10 µM.

`CC(C)c1nn(CC(=O)Nc2ccncn2)c(=O)c2cc(CCCF)cn12` [Compound 78F, 2-(7-(3-fluoropropyl)-4-isopropyl-1-oxopyrrolo[1,2-d][1,2,4]triazin-2(1H)-yl)-N-(pyrimidin-4-yl)acetamide] yielded a half-maximal inhibitory concentration (IC50) in assay [1] (Homo sapiens, PBMC) of 2.33 µM. The EC50 in assay [2] was more than 10 µM.

With `CC(C)c1nn(CC(=O)Nc2ccncn2)c(=O)c2cc(C3CCOCC3)cn12` [Compound 79F], the IC50 in assay [1] (Homo sapiens, PBMC) was more than 10 µM. The compound further came in with an EC50 in assay [2] of more than 10 µM.

As to `CC(C)c1nn(CC(=O)Nc2ccncn2)c(=O)c2cc(CC3CCCOC3)cn12` (centres unmarked) [Compound 80F, 2-(4-isopropyl-1-oxo-7-((tetrahydro-2H-pyran-3-yl)methyl)pyrrolo[1,2-d][1,2,4]triazin-2(1H)-yl)-N-(pyrimidin-4-yl)acetamide], the IC50 in assay [1] (Homo sapiens, PBMC) is more than 10 µM. In addition, the EC50 in assay [2] was more than 10 µM.

On to `CC(C)c1nn(CC(=O)Nc2ccncn2)c(=O)c2cc(CC3CCNCC3)cn12` [Compound 82F, 2-(4-isopropyl-1-oxo-7-(piperidin-4-ylmethyl)pyrrolo[1,2-d][1,2,4]triazin-2(1H)-yl)-N-(pyrimidin-4-yl)acetamide], for which, in assay [1] (Homo sapiens, PBMC), the concentration for half-maximal inhibition (IC50) was more than 10 µM. In addition, the EC50 in assay [2] was more than 10 µM.

`CC(C)c1nn(CC(=O)Nc2ccncn2)c(=O)c2cc(C3CNC3)cn12` [Compound 83F, 2-(7-(azetidin-3-yl)-4-isopropyl-1-oxopyrrolo[1,2-d][1,2,4]triazin-2(1H)-yl)-N-(pyrimidin-4-yl)acetamide] registered an IC50 in assay [1] (Homo sapiens, PBMC) of more than 10 µM. In assay [2], this compound returned an EC50 of more than 10 µM.

In turn, `CC(C)c1nn(CC(=O)Nc2ccncn2)c(=O)c2cc(C3CCNCC3)cn12` [Compound 84F, 2-(4-isopropyl-1-oxo-7-(piperidin-4-yl)pyrrolo[1,2-d][1,2,4]triazin-2(1H)-yl)-N-(pyrimidin-4-yl)acetamide] had an IC50 in assay [1] (Homo sapiens, PBMC) of more than 10 µM. Further, the EC50 in assay [2] was more than 10 µM.

Regarding `CC(C)c1nn(CC(=O)Nc2ccncn2)c(=O)c2cc(C(C)(C)O)cn12` [Compound 86F, 2-(7-(2-hydroxypropan-2-yl)-4-isopropyl-1-oxopyrrolo[1,2-d][1,2,4]triazin-2(1H)-yl)-N-(pyrimidin-4-yl)acetamide], the IC50 in assay [1] (Homo sapiens, PBMC) was more than 10 µM. The EC50 in assay [2] was more than 10 µM.

Regarding `CC(C)c1nn(CC(=O)Nc2ccncn2)c(=O)c2cc(C(C)(C)F)cn12` [Compound 87F, 2-(7-(2-fluoropropan-2-yl)-4-isopropyl-1-oxopyrrolo[1,2-d][1,2,4]triazin-2(1H)-yl)-N-(pyrimidin-4-yl)acetamide], in assay [1] (Homo sapiens, PBMC), it took 8.26 µM to reach half-maximal inhibition (IC50). In addition, in assay [2], the EC50 was more than 10 µM.

With `COC(C)c1cc2c(=O)n(CC(=O)Nc3ccncn3)nc(C(C)C)n2c1` (centres unmarked) [Compound 88F], the IC50 is 7.08 µM in assay [1] (Homo sapiens, PBMC) and 9.06 µM in assay [1]. The same compound had an EC50 in assay [2] of more than 10 µM.

`CC(C)c1nn(CC(=O)Nc2ccncn2)c(=O)c2cc(-c3cnn(C)c3)cn12` [Compound 89F, 2-(4-isopropyl-7-(1-methyl-1H-pyrazol-4-yl)-1-oxopyrrolo[1,2-d][1,2,4]triazin-2(1H)-yl)-N-(pyrimidin-4-yl)acetamide] displayed an IC50 in assay [1] (Homo sapiens, PBMC) of more than 10 µM. Further, the EC50 in assay [2] is more than 10 µM.

Turning to `CC(C)c1nn(CC(=O)Nc2ccncn2)c(=O)c2cc(-c3ccn(C)n3)cn12` [Compound 90F], in assay [1] (Homo sapiens, PBMC), the IC50 is more than 10 µM. Further, the EC50 in assay [2] was more than 10 µM.

In turn, `CC(C)c1nn(CC(=O)Nc2ccncn2)c(=O)c2cc(-c3cn[nH]c3)cn12` [Compound 91F] had an IC50 in assay [1] (Homo sapiens, PBMC) of more than 10 µM. For the same compound, the half-maximal effective concentration (EC50) in assay [2] was more than 10 µM.
